Earlier results on 1 molecule are cited in patent US7378109B2, “Pharmaceutical composition for improving palatability of drugs and process for preparation thereof” (Council of Scientific and Industrial Research, priority 2004, dated 2008).

The conditions of the series: humans, oral.

Take `CO/N=C(\C(=O)N[C@@H]1C(=O)N2C(C(=O)OC(C)OC(C)=O)=C(COC(N)=O)CS[C@H]12)c1ccco1` (stereo partly shown) [Cefuroxime axetil]: the bioavailability is reported as 32-50%.
